Assay results as given in PMC6538996, “Evaluating the In Vivo Specificity of [^18F]UCB-H for the SV2A Protein, Compared with SV2B and SV2C in Rats Using microPET” (Molecules, 2019).

Legend:
[1] = target: T1, [^18F]UCB-H binding in rat brain (Rattus norvegicus, UniProt Q02563); assay: microPET blocking assay of [18F]UCB-H (Vt, Logan plot, PBIF) after pre-treatment with competitors; type: in vivo, Sprague Dawley rats; details: mean ± SEM, n = 5, SV2AL 10 mg/kg, SV2BL and SV2CL 3 mg/kg i.p.
T1 construct: from tissue; host or cells: brain of living Sprague Dawley rats (microPET)
T1 sequence (Q02563 whole entry): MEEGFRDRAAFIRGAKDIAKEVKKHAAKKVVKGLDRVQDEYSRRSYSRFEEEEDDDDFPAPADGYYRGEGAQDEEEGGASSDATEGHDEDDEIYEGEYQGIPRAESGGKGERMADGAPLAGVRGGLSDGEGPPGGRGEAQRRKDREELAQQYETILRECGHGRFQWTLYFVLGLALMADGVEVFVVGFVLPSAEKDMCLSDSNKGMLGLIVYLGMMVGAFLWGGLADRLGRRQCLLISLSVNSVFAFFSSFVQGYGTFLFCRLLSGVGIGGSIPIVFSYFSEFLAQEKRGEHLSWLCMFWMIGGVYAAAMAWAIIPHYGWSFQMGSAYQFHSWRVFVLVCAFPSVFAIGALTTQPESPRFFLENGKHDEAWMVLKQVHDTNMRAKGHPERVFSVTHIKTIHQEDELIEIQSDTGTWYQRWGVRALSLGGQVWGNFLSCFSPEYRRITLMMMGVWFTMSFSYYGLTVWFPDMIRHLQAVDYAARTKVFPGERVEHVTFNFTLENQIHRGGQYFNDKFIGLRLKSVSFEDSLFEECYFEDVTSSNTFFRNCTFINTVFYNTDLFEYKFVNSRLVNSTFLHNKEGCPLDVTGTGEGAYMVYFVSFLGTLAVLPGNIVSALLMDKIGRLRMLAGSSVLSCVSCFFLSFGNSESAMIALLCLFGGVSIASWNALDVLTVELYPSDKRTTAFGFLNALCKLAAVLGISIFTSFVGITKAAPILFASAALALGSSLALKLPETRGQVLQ
Description: The competitors were prepared daily in a vehicle composed of distilled water containing 1% methyl cellulose (viscosity: 15 cP, Sigma-Aldrich, Overijse, Belgium) and 5% dimethyl sulphoxide (DMSO, Sigma-Aldrich, Belgium). The concentrations differed depending on the product specifications and their respective pharmacokinetics, provided by UCB Pharma s.a. The dosing used was 10 mg/kg for SV2AL, 3 mg/kg for SV2BL, and 3 mg/kg for SV2CL. All solutions were administered through the intraperitoneal (i.p.) route in a total volume of 1 mL per kg of body weight. The animals used as a control group (vehicle) received an equal volume of vehicle through the same route of administration.
The animals (n = 5 per group) were anesthetized using 4% isoflurane in air at a flow rate of 1 L/min during induction and 1.5% to 2% isoflurane in air at 0.6 L/min during maintenance. Respiration rate and rectal temperature were continuously measured using a physiological monitoring system (Minerve, France). The temperature was maintained at 37 ± 0.5 °C using an air warming system. […]
PMOD software (Version 3.6, PMOD Technologies, Zurich, Switzerland) was used to process the imaging data. […] Finally, the inverse normalization parameters were calculated and applied to the PMOD rat brain atlas to bring it in the individual PET space. […]

human SV2A = target: T2, human SV2A (Homo sapiens, UniProt Q7L0J3); assay: In vitro radioligand binding assay, hSV2A (HEK293 membranes, 3H-UCB30889); details: 37 °C, mean n = 3 to 10, read-out: pIC50 SV2A (converted)
T2 construct: expressed in transfected cells; crude membranes
T2 sequence (Q7L0J3 whole entry): as the sequence (Q02563 whole entry) above, with E53D, A62S, A71T, D144E, T154A, S440G, A482S, V572I, L634M counted along it
Description: Reagents and reference compounds used were of analytical grade and obtained from various commercial sources. All cell culture reagents were obtained from Invitrogen (Merelbeke, Belgium). […] Test and reference compounds were dissolved in 100% DMSO or H2O to give 1 or 10 mM stock solution. The final DMSO concentration in assays was 0.1% unless otherwise stated. Cell lines generated at UCB Biopharma were human embryonic kidney (HEK) 293 cells expressing human SV2A, SV2B or SV2C proteins. Cells were cultured in Dulbecco’s Modified Eagle medium. The culture medium was supplemented with foetal bovine serum (FBS, 10%), 2 mM L-glutamine, 50 to 100 U/mL penicillin, 50 to 100 µg/mL streptomycin, and 200 µg/mL hygromycin B. Cells were grown at 37 °C with 95% air. Confluent cells were detached by 10 min incubation at 37 °C in phosphate buffered saline (PBS) containing 0.02% EDTA. Culture flasks were washed with 15 mL of ice-cold PBS. The cell suspension was centrifuged at 1500× g for 10 min at 4 °C. The pellet was homogenized in 15 mM Tris-HCl buffer (pH 7.5) containing 2 mM MgCl2, 0.3 mM EDTA, and 1 mM EGTA (buffer A) using a glass/teflon homogenizer. The crude homogenate was subjected to a freeze and thaw cycle in liquid nitrogen and DNAse (1 µL/mL) was then added. […] The radioactivity trapped on the filters was counted by liquid scintillation in a β-counter. […]

SV2A = details: cited from earlier work

SMILES	mean Vt of [18F]UCB-H in the whole brain of the pre-treated group [1]	IC50 (human SV2A)	pIC50 (affinity measured in vitro) (SV2A)
CC[C@@H](C(N)=O)N1CCCC1=O [SV2AL, levetiracetam]	6.0 ± 0.3	6.31 µM	–
[11CH3]n1cncc1CN1C[C@@H](c2cc(F)cc(F)c2)CC1=O [[^11C]UCB-A]	–	–	7.9
